A melting point compilation (Tetko et al.; mined from patent text by program, amines drawn as free bases though some values may be those of a salt)

First: O=C1NC(c2ccccc2)CN1S(=O)(=O)c1ccc2c(c1)CCN2C(=S)Nc1ccc(F)cc1 (stereo not drawn)
Second: Fc1ccc(-c2[nH]c(C3CCN(Cc4ccccc4)CC3)nc2-c2ccncc2)cc1
The melting point of the first is lower: 190 to 192 °C for the first, 212 to 215 °C for the second.

First: Fc1cc(Cl)c(CCl)cc1-c1ncnc(C(F)F)c1Cl
Second: Nc1c(Br)cnn1-c1c(Cl)ccc(Cl)c1Cl
The melting point of the first is higher: 132 to 133 °C for the first, 129 °C for the second.

`CN(C=C(c1ccccc1)c1ccccc1)C(=O)c1sc2ccc(C(F)(F)F)cc2c1O` and `CC(C)CCNC(=O)c1ccccc1-c1ccccc1CNC(=O)c1ccccc1` cannot be ordered by melting point: 147 to 150 °C for the first, 147 °C for the second.

First: N=c1ncccn1CCc1ccccc1Br
Second: ON=c1ccccc2cnccc12
The melting point of the first is lower: 97 to 98 °C for the first, 164 to 167 °C for the second.

First: NNc1ccc2c(=O)n(Cc3ccccc3)cnc2c1
Second: Cc1ncc2n1-c1ccc(Cl)cc1C(c1ccccc1)=NC2
The melting point of the first is lower: 165 to 169 °C for the first, 187 to 188 °C for the second.

First: Cc1c(NC(=O)c2ccc(-c3cc4ccccc4o3)cc2)ccc2cc(CN3CCCC3)cnc12
Second: COc1ccc(CS[C@@H]2C[C@@H](C(=O)NN)N(S(=O)(=O)c3ccc4ccccc4c3)C2)cc1
The melting point of the first is higher: 217 to 218 °C for the first, 130 °C for the second.

Compared with `CC12CCC3c4cc(O)c(OCc5ccccc5)cc4CCC3C1CCC2OCc1ccccc1` (stereo not drawn), `Clc1ccc(COc2ccccc2C(=NOCc2ccccc2)n2ccnc2)cc1` is lower in melting point: 117 to 118 °C for the first, 94 to 95.5 °C for the second.

First: C[C@@H]1Cc2ccsc2[C@H](C)N1CCNS(=O)(=O)c1ccc(N)cc1 (relative stereo)
Second: CC(C)c1ccccc1S(=O)(=O)c1ccc(OCCCNC(C)(C)C)cc1
The melting point of the first is higher: 126 to 131 °C for the first, 116 °C for the second.

First: N#CC1(c2nnn[nH]2)CCCC1
Second: C[C@H]1CCCC(C)(C)[C@@H]1C(=O)c1ccc(C#N)c(F)c1
The melting point of the first is higher: 92 to 94 °C for the first, 53 to 56 °C for the second.

Compared with `CCCOc1ccccc1-c1nc2nc(N)nnc2c(=O)[nH]1`, `CCOC(=O)c1nsc(-c2ccccc2)n1` is lower in melting point: 255 to 256 °C for the first, 32 to 35 °C for the second.

Compared with `N#Cc1ccc(CNC(=O)Cc2ccc(O)cc2)cc1`, `CCC(=O)NCc1c[nH]c2ccccc12` is lower in melting point: 176 to 178 °C for the first, 91 to 92 °C for the second.

Compared with `Cc1c(-c2ccccc2)n(-c2ccccc2Cl)c(-c2ccccc2)cc1=S`, `CCOC(=O)CN1C(=O)C(NC(=O)Cc2ccc(Cl)cc2)N=C(c2ccccc2)c2ccccc21` (stereo not drawn) is lower in melting point: 271 to 275 °C for the first, 205 to 207 °C for the second.

First: COc1cc(CCNC(=O)N(C)O)cc(OC)c1OC
Second: COc1cc(OC)c([N+](=O)[O-])nc1NCCO
The melting point of the first is lower: 100 to 102 °C for the first, 131 °C for the second.

First: Cc1ccc(C)c(SCCCC(=O)O)c1
Second: Cc1ccc(O[C@@H]2CCNC[C@H]2O)cc1C (relative stereo)
The melting point of the first is lower: 61 to 62 °C for the first, 125 to 127 °C for the second.

First: C#CCCCCCCCCCCCCCO
Second: O=C(O)C(Cl)(Cl)CCCCCCCCCCBr
The melting point of the first is lower: 42 to 44 °C for the first, 49 to 51 °C for the second.

First: O=C(CBr)Nc1c(Cl)cccc1C(=O)O
Second: O=C(O)c1ccccc1Oc1ccc(Cl)cn1
The melting point of the first is higher: 173 to 175 °C for the first, 159 °C for the second.

First: COc1ccc(N2CCN(c3c(C)c(C)c4c(c3C)C(c3ccc(F)cc3)C(C)(C)O4)CC2)cc1 (stereo not drawn)
Second: COc1ccc(-c2[nH]c(-c3ccncc3)c(C)c2C(C)=O)cc1
The melting point of the first is lower: 139 to 141 °C for the first, 185 to 186 °C for the second.

First: COC(=O)c1nc(Cl)c(F)c(N)c1/C=C/[Si](C)(C)C
Second: C=C(OCC)c1cc(N)c(OC)c(C(=O)OC)n1
The melting point of the first is higher: 103 to 105 °C for the first, 72 to 73 °C for the second.

Compared with `O=C(Cn1c(-c2cccs2)ncc(NC(=O)OCc2ccccc2)c1=O)NC(Cc1ccccc1)C(=O)C(F)(F)F` (stereo not drawn), `CCOC(OCC)c1cc(NC(c2ccccc2)(c2ccccc2)c2ccccc2)c(F)c(CC2CC2)n1` is higher in melting point: 108 to 111 °C for the first, 120 to 121 °C for the second.

First: CCCCN(C(=S)NC)c1ccc(Cl)nc1
Second: CCCCS(=O)(=O)c1cn(C)c2ccccc2c1=O
The melting point of the first is higher: 129 to 130 °C for the first, 107 to 108 °C for the second.

Compared with `CC(C)C[C@H]1COCC(=O)N1`, `CC(C)N(C(=O)CBr)C(C)C` is lower in melting point: 69 to 70 °C for the first, 64 to 65.5 °C for the second.

Compared with `COc1cc(OC)c2cc(C(=O)c3ccccc3)c(=O)oc2c1`, `CCN(CC)C(=O)CCc1nc(-c2ccccc2)nc2ccc(OC)cc12` is lower in melting point: 178 to 179 °C for the first, 144 °C for the second.

First: CS(=O)(=O)c1ccc(-c2cc(C(=O)CCCO[N+](=O)[O-])nn2-c2ccc(Br)cc2)cc1
Second: CC(C)=CCCOc1c(-c2ccc(S(C)(=O)=O)cc2)cnn(-c2ccc(F)cc2)c1=O
The melting point of the first is higher: 150 to 152 °C for the first, 111 to 114 °C for the second.

Compared with `O=[N+]([O-])C(=CC(O)C(=C1NCCN1Cc1ccc(Cl)nc1)[N+](=O)[O-])C1=NCCN1Cc1ccc(Cl)nc1` (stereo not drawn), `NCc1ccc(CN2CCN(c3ccccc3)CC2)cc1` is lower in melting point: 157 to 162 °C for the first, 68 to 70 °C for the second.

Compared with `CC1(C)COC(c2ccc(S)cc2)OC1`, `CN1C2=NC(C)(C)N(C)C(=O)N2c2ccccc21` is lower in melting point: 134 to 136 °C for the first, 79 to 82 °C for the second.

Compared with `CCOC(=O)c1cn(CC)c2nc(N3CCN(CCO)CC3)ncc2c1=O`, `CCCCOC(=O)c1ccc(N2CCN(S(C)(=O)=O)CC2)cc1` is lower in melting point: 172 °C for the first, 145 to 150 °C for the second.

First: CS(=O)(=O)NC(=O)N1CC1C#N (stereo not drawn)
Second: CC(CS)C(=O)N1CC(Oc2ccc(CC3Nc4cc(Cl)c(S(N)(=O)=O)cc4S(=O)(=O)N3C)cc2)CC1C(=O)O (stereo not drawn)
The melting point of the first is lower: 110 to 112 °C for the first, 192 to 197 °C for the second.

First: O=C1c2cc(O)ccc2OCC1Oc1ccccc1 (stereo not drawn)
Second: Cc1c(Cl)cccc1Nc1ncccc1C(=O)OC1OC(=O)c2ccccc21 (stereo not drawn)
The melting point of the first is lower: 142 to 146 °C for the first, 178 to 180 °C for the second.

Compared with `COCCCn1nnnc1-c1cc(-c2ccccc2C(F)(F)F)c(O)cc1O`, `OCc1cccc(C(O)c2cc(C(F)(F)F)nc3c(C(F)(F)F)cccc23)c1` (stereo not drawn) is lower in melting point: 207 to 210 °C for the first, 152 to 154 °C for the second.

First: CC1CCCCN1c1nc(-c2ccc(Cl)cc2)c(CCC(=O)O)o1 (stereo not drawn)
Second: Cn1c(=O)n2nc(-c3ccc(Cl)cc3)nc2c2ccccc21
The melting point of the first is lower: 126 to 128 °C for the first, 323 to 325 °C for the second.

First: COc1ccc(-c2nccc3c(C)cccc23)cc1
Second: COc1ccc(-c2sc3cnccc3c2OC(C)=O)cc1
The melting point of the first is lower: 60.4 to 60.8 °C for the first, 141 to 142 °C for the second.

First: CCOC(=O)c1cccc(-c2coc3c(C)c(O)ccc3c2=O)c1
Second: CCOC(=O)c1cnc2c(-c3ccc(Cc4cccc(OC)c4)cc3)cnn2c1O
The melting point of the first is lower: 222 °C for the first, 236 to 240 °C for the second.

First: COc1ccc(Oc2ccc(C(=O)NC(C(=O)O)C(C)C)cc2)cc1 (stereo not drawn)
Second: CCCc1ccc2c(c1)C(=O)N(c1ccc(C(C)C(=O)OC(C)(C)C)cc1)C2 (stereo not drawn)
The melting point of the first is higher: 156 °C for the first, 110 to 115 °C for the second.

First: CC1(C)Cc2cc(Br)cc(O)c2O1
Second: CC(=Cc1ccccc1)c1ccc2c(c1)C(C)(C)C(O)C2(C)C (stereo not drawn)
The melting point of the first is higher: 70 °C for the first, 63 to 67 °C for the second.

Compared with `Cc1nc(S(=O)(=O)Cc2ccccc2)nc(C)c1Br`, `Cc1ccc(S(=O)(=O)N(Cc2ccccc2)N=O)cc1` is lower in melting point: 138 to 139 °C for the first, 92 to 93 °C for the second.

Compared with `CC(C)(C)OC(=O)[C@H]1CC[C@@H](c2ccccc2)N1C(=O)CNC(=O)Nc1cccc(CO)c1` (racemic), `COC(=O)c1ccc(C)c(-n2c(C)cc(OCc3ccccc3CNC(=O)Nc3cc(C(C)(C)C)nn3-c3ccc(O)c(Cl)c3)c(Cl)c2=O)c1` is higher in melting point: 168 °C for the first, 185 to 186 °C for the second.

First: COCCc1nc2c(N)nc3ccccc3c2n1CCCNC(=O)NC1CCCCC1
Second: COCCCn1c(C=O)c(Br)c2c3c(c(-c4ccccc4Cl)cc21)C(=O)NC3=O
The melting point of the first is lower: 179 to 180 °C for the first, 206 to 207 °C for the second.

Compared with `CCOC(=O)Cc1c(C)ncnc1O`, `CCOC(=O)Cc1c(C#N)cnc2c(NC(=O)c3c(Cl)cccc3Cl)cccc12` is higher in melting point: 148 to 149 °C for the first, 171 to 173 °C for the second.

First: CN(Cc1cc2c(=O)c(C(=O)NCc3ccc(Cl)cc3)cn(C)c2o1)CC(O)c1cccs1 (stereo not drawn)
Second: Cc1cc(CNC(=O)c2ccnc(-n3cnn(Cc4ccc(F)c(F)c4)c3=O)c2)no1
The melting point of the first is lower: 145 to 147 °C for the first, 160 to 161 °C for the second.

`O=[N+]([O-])c1ccc2c(c1)C(O)c1cccnc1CC2` (stereo not drawn) and `Nc1ccc(N2CCc3ccncc3C2)cc1` cannot be ordered by melting point: 222 to 223 °C for the first, greater than 220 °C for the second.

Compared with `CCCCCCCCN(O)C(=O)N(C)C`, `CCCCCCCCCCCCCCCc1[nH]c2ccc(C(=S)OCC)cc2c1C` is higher in melting point: 29 to 30 °C for the first, 55 to 60 °C for the second.

First: Cc1cc(-n2ncc(=O)[nH]c2=O)cc(Cl)c1C(C)(C#N)c1ccc(Cl)cc1 (stereo not drawn)
Second: Clc1ccc(C=Cc2ncon2)cc1
The melting point of the first is higher: 227 °C for the first, 134 °C for the second.

First: CN1CC[C@]2(c3cccc(O)c3)CC=CC[C@@H]2C1 (relative stereo)
Second: CN1CC[C@@H](c2c(O)cc(O)c3c(=O)cc(-c4ccc(N)cc4)oc23)[C@@H]1CO
The melting point of the first is lower: 159 °C for the first, 172 to 174 °C for the second.

First: Nc1nc(C(=O)O)c(-c2ccncc2)s1
Second: Nc1ncc(-c2ccncc2)cn1
The melting point of the first is higher: 211 °C for the first, 180 to 182 °C for the second.

First: CCc1ccc2c3c(c(=O)oc2c1)CNCC3
Second: CC1(C)CCc2c(N3CCOCC3)nc3sc4c(NCc5ccc(S(N)(=O)=O)cc5)ncnc4c3c2C1
The melting point of the first is lower: 80 to 85 °C for the first, 258 to 260 °C for the second.

Compared with `N#Cc1ccccc1N1CCN(C[C@@H](O)COc2cccc(-c3noc4ccsc34)c2)CC1`, `Cc1ccc(-c2cccc(/C=C/C(=O)Nc3ccc(CO)cc3)c2)cc1` is higher in melting point: 87 to 89 °C for the first, 220 to 223 °C for the second.

Compared with `O=C(O)C1=Cc2cc(C(F)F)ccc2OC1C(F)(F)F` (stereo not drawn), `CCOC(=O)C(=CNNc1c(Cl)cc(C(F)(F)F)cc1Cl)C(=O)OCC` is lower in melting point: 135 to 136 °C for the first, 86 °C for the second.

First: CCCCCC(=O)Nc1ccnc(-c2ccncc2)n1
Second: Nc1nc(Cl)cc(NCCCCO)n1
The melting point of the first is higher: 119 to 120 °C for the first, 110 to 112 °C for the second.

First: C=C(C)c1c(OC)cc(Cc2cnc(N)nc2N)cc1OC
Second: CCCn1c(=O)c2[nH]c(-c3cc(C)n(CC(=O)Nc4ccc(OC)c(OC)c4)n3)nc2n(CCC)c1=O
The melting point of the first is lower: 228 to 229 °C for the first, 285 to 290 °C for the second.

First: COc1cc(C)nc(N=C=S)n1
Second: Cc1nc(C)c(Cl)c(NCc2ccc(Oc3ccc4ncc([N+](=O)[O-])n4n3)c(OCC3CC3)c2)n1
The melting point of the first is lower: 54 to 55 °C for the first, 178 to 180 °C for the second.

First: O=C(O)C1(CCCCCCCCCCCCC2(C(=O)NC3CC3)CC2)CC1
Second: COc1cc(OC)cc(OCCCCCN2CCC(CNC(=O)c3cc(Cl)c(N)cc3OC)CC2)c1
The melting point of the first is lower: 95.3 to 97.7 °C for the first, 112 to 113 °C for the second.

For `CCSc1nsc(NC(=O)N(C)C)c1C(N)=O`, the melting point was 147 °C.
